#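 Briefly, cells in 96-well plates were exposed to five compound concentrations for 48 h, and endpoints were estimated by linear interpolation. Here, GI50 denotes the concentration required for 50% inhibition of growth.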 The source made the active and inactive calls. No stated cut-off is given here; in the data, active = GI50 up to about 1.1 µM and inactive = higher. Where a SMILES comes first, the peptide text is derived from it. [ ]: non-standard residue; d: D form. 2Nal = N[CH](Cc1ccc2ccccc2c1)C(=O)O
# Key:
# Assay in all cases: NCI-60 cell line screen, 48 h
# NCI-H460 = tested on: NCI-H460
# KM-20L2 = tested on: KM-20L2
# NCI-H23 = tested on: NCI-H23
# UO-31 = tested on: UO-31
# RXF 393 = tested on: RXF 393
# OVCAR-3 = tested on: OVCAR-3
# HCC 2998 = tested on: HCC 2998
# MOLT-4 = tested on: MOLT-4
# ACHN = tested on: ACHN
# CCRF-CEM = tested on: CCRF-CEM
# SW-620 = tested on: SW-620
# CAKI-1 = tested on: CAKI-1
# SNB-19 = tested on: SNB-19
# HT-29 = tested on: HT-29
# K562 = tested on: K562
# SR = tested on: SR
# OVCAR-5 = tested on: OVCAR-5
# OVCAR-4 = tested on: OVCAR-4
# DU-145 = tested on: DU-145
# MCF7 = tested on: MCF7
Structure (SMILES),GI50 (NCI-H460),GI50 (KM-20L2),GI50 (NCI-H23),GI50 (UO-31),GI50 (RXF 393),GI50 (OVCAR-3),GI50 (HCC 2998),GI50 (MOLT-4),GI50 (ACHN),GI50 (CCRF-CEM),GI50 (SW-620),GI50 (CAKI-1),GI50 (SNB-19),GI50 (HT-29),GI50 (K562),GI50 (SR),GI50 (OVCAR-5),GI50 (OVCAR-4),GI50 (DU-145),GI50 (MCF7)
COc1ccc(C(=O)CC2=Nc3nnc(CCCCCCCc4nnc5n4C(=O)C(CC(=O)c4ccc(OC)cc4)=N5)n3C2=O)cc1,> 100 µM (inactive),> 100 µM (inactive),> 100 µM (inactive),> 100 µM (inactive),> 100 µM (inactive),> 100 µM (inactive),> 100 µM (inactive),> 100 µM (inactive),> 100 µM (inactive),> 100 µM (inactive),> 100 µM (inactive),> 100 µM (inactive),> 100 µM (inactive),> 100 µM (inactive),> 100 µM (inactive),> 100 µM (inactive),> 100 µM (inactive),–,–,–
CCOC(OC1=C(C#N)CCCC1)C(CC)[Se]c1ccccc1 (stereo not given),17.8 µM (inactive),25.1 µM (inactive),14.3 µM (inactive),37.8 µM (inactive),15 µM (inactive),19.9 µM (inactive),35.2 µM (inactive),20.7 µM (inactive),30.1 µM (inactive),15.7 µM (inactive),–,53.1 µM (inactive),39.9 µM (inactive),29 µM (inactive),38.9 µM (inactive),7.8 µM (inactive),32.4 µM (inactive),19.3 µM (inactive),–,–
N#CC(C(=O)CCCC(=O)Nc1ccc(Cl)cc1Cl)c1ccccc1 (stereo not given),> 100 µM (inactive),> 100 µM (inactive),> 100 µM (inactive),> 100 µM (inactive),> 100 µM (inactive),> 100 µM (inactive),> 100 µM (inactive),> 100 µM (inactive),> 100 µM (inactive),> 100 µM (inactive),> 100 µM (inactive),> 100 µM (inactive),> 100 µM (inactive),> 100 µM (inactive),> 100 µM (inactive),> 100 µM (inactive),> 100 µM (inactive),> 100 µM (inactive),–,–
C/C=C(/CCCCNCCCC)[Si](C)(C)C,15.6 µM (inactive),7.52 µM (inactive),16.1 µM (inactive),17.5 µM (inactive),8.65 µM (inactive),14.5 µM (inactive),5.66 µM (inactive),11.4 µM (inactive),14 µM (inactive),8.26 µM (inactive),16.6 µM (inactive),–,17.7 µM (inactive),3.94 µM (inactive),17.6 µM (inactive),13.4 µM (inactive),14.4 µM (inactive),–,–,–
Cn1cc(NC(=O)c2cc(NC(=O)Nc3cc(C(=O)Nc4cc(C(=O)NCCC(=N)N)n(C)c4)n(C)c3)cn2C)cc1C(=O)NCCC(=N)N,17.3 µM (inactive),60.5 µM (inactive),37.4 µM (inactive),33.1 µM (inactive),22.4 µM (inactive),41.1 µM (inactive),48.1 µM (inactive),> 100 µM (inactive),25.2 µM (inactive),22 µM (inactive),> 100 µM (inactive),30.5 µM (inactive),> 100 µM (inactive),> 100 µM (inactive),51.8 µM (inactive),44.2 µM (inactive),> 100 µM (inactive),38.7 µM (inactive),–,–
Nc1nc2c(N)cc(C(F)(F)F)cc2nc1-c1ccccc1,> 100 µM (inactive),> 100 µM (inactive),> 100 µM (inactive),> 100 µM (inactive),> 100 µM (inactive),> 100 µM (inactive),> 100 µM (inactive),38.4 µM (inactive),> 100 µM (inactive),> 100 µM (inactive),> 100 µM (inactive),> 100 µM (inactive),> 100 µM (inactive),–,> 100 µM (inactive),> 100 µM (inactive),> 100 µM (inactive),> 100 µM (inactive),–,–
COc1ccc2nccc(NCCCN3CCN(CCCNc4ccnc5ccc(OC)cc45)CC3)c2c1,0.296 µM (active),0.703 µM (active),0.51 µM (active),8.13 µM (inactive),1.32 µM (inactive),1.22 µM (inactive),0.505 µM (active),0.107 µM (active),1.45 µM (inactive),0.0828 µM (active),0.11 µM (active),3.69 µM (inactive),0.927 µM (active),0.172 µM (active),0.228 µM (active),0.505 µM (active),0.826 µM (active),1.04 µM (active),0.508 µM (active),0.0403 µM (active)
CCc1cccc(C(C)C)c1NC(=O)C(=O)C1C(=O)NC(=O)NC1=O,> 100 µM (inactive),> 100 µM (inactive),> 100 µM (inactive),> 100 µM (inactive),> 100 µM (inactive),> 100 µM (inactive),> 100 µM (inactive),–,> 100 µM (inactive),> 100 µM (inactive),> 100 µM (inactive),> 100 µM (inactive),> 100 µM (inactive),> 100 µM (inactive),> 100 µM (inactive),> 100 µM (inactive),> 100 µM (inactive),> 100 µM (inactive),–,–
CCOC(OC1=C(C#N)CCC1)C(C)[Se]c1ccccc1 (stereo not given),36.4 µM (inactive),45.4 µM (inactive),12.9 µM (inactive),26.5 µM (inactive),18 µM (inactive),18.1 µM (inactive),46.7 µM (inactive),18 µM (inactive),32.1 µM (inactive),> 100 µM (inactive),–,59.7 µM (inactive),48.1 µM (inactive),42.2 µM (inactive),55.6 µM (inactive),11.6 µM (inactive),39.8 µM (inactive),14.9 µM (inactive),–,–
CC1CC(=O)C(C(O)CC2CC(=O)N(c3ccccc3)C(=O)C2)C(C)C1 (stereo not given),> 100 µM (inactive),> 100 µM (inactive),> 100 µM (inactive),> 100 µM (inactive),> 100 µM (inactive),> 100 µM (inactive),> 100 µM (inactive),> 100 µM (inactive),> 100 µM (inactive),> 100 µM (inactive),> 100 µM (inactive),> 100 µM (inactive),> 100 µM (inactive),> 100 µM (inactive),> 100 µM (inactive),> 100 µM (inactive),> 100 µM (inactive),> 100 µM (inactive),–,–
CCCCCCCCOCC(CO)OCCCCCCCC (stereo not given),15.8 µM (inactive),> 10 µM (inactive),18.7 µM (inactive),20 µM (inactive),–,19.9 µM (inactive),18.9 µM (inactive),19.2 µM (inactive),17.2 µM (inactive),22.5 µM (inactive),19.8 µM (inactive),30.5 µM (inactive),23.7 µM (inactive),20.6 µM (inactive),18.4 µM (inactive),> 10 µM (inactive),17.9 µM (inactive),19.2 µM (inactive),–,–
CC(NC(=O)C(N)Cc1ccccc1)C(=O)NC(Cc1ccc(O)cc1)C(=O)NC(Cc1c[nH]c2ccccc12)C(=O)NC(CCCCN)C(=O)NC(C(=O)NC(C)C(=O)NC(Cc1ccc2ccccc2c1)C(N)=O)C(C)C (stereo not given) (H-FAYWKVA[2Nal]-NH2; configuration not given here),> 12.5 µM (inactive),27.1 µM (inactive),> 12.5 µM (inactive),> 12.5 µM (inactive),> 12.5 µM (inactive),> 12.5 µM (inactive),> 12.5 µM (inactive),–,> 12.5 µM (inactive),> 12.5 µM (inactive),> 12.5 µM (inactive),> 12.5 µM (inactive),24.6 µM (inactive),> 12.5 µM (inactive),> 12.5 µM (inactive),–,> 12.5 µM (inactive),> 12.5 µM (inactive),> 12.5 µM (inactive),> 12.5 µM (inactive)

# Source: ChEMBL document CHEMBL1201862, “PubChem BioAssay data set” (2004)
